ChEMBL document CHEMBL1201862, “PubChem BioAssay data set” (2004)
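Results reflect a 48-hour exposure of cells in 96-well plates to compound at five concentrations. The concentration for 50% growth inhibition is given as GI50.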 Calls of active or inactive are those of the source. No stated cut-off is given here; in the data, active = GI50 up to about 1.1 µM and inactive = higher.

Key:
Assay in all cases: NCI-60 cell line screen, 48 h
KM12 = system: KM12
A549 = system: A549
TK-10 = system: TK-10
U-251 = system: U-251
SNB-19 = system: SNB-19
Malme-3M = system: Malme-3M
HL-60 = system: HL-60
MDA-N = system: MDA-N
SF-539 = system: SF-539
HCT-116 = system: HCT-116
OVCAR-3 = system: OVCAR-3
Hs-578T = system: Hs-578T
ACHN = system: ACHN
SF-295 = system: SF-295
IGROV-1 = system: IGROV-1
HOP-62 = system: HOP-62
M14 = system: M14
NCI/ADR-RES = system: NCI/ADR-RES
OVCAR-8 = system: OVCAR-8
NCI-H460 = system: NCI-H460

Measured: GI50

Cc1cc(C)nc(NC(=S)Nc2cccc(Cl)c2)c1
inactive: KM12 > 100 µM | A549 20.8 µM | TK-10 > 35.9 µM | U-251 > 100 µM | SNB-19 > 100 µM | Malme-3M > 100 µM | HL-60 > 100 µM | MDA-N > 100 µM | SF-539 > 100 µM | HCT-116 > 100 µM | OVCAR-3 > 100 µM | Hs-578T > 100 µM | ACHN 28.1 µM | SF-295 > 100 µM | IGROV-1 16.1 µM | HOP-62 > 75.7 µM | M14 > 100 µM | NCI/ADR-RES > 100 µM | OVCAR-8 > 100 µM | NCI-H460 > 45.8 µM

CCN(CC)C(=O)Cn1c2c(c3ccccc31)CCCC2
inactive: A549 61.8 µM | TK-10 > 100 µM | SNB-19 > 100 µM | Malme-3M > 100 µM | HL-60 45.2 µM | MDA-N 77.8 µM | SF-539 47.2 µM | HCT-116 40.9 µM | OVCAR-3 > 10 µM | Hs-578T 24.5 µM | ACHN 65.2 µM | SF-295 49.8 µM | IGROV-1 > 100 µM | HOP-62 > 100 µM | M14 > 100 µM | NCI/ADR-RES 66.4 µM | OVCAR-8 > 100 µM | NCI-H460 > 100 µM

CC1CC[C@@]2(OC1)OC1C[C@H]3[C@@H]4C/C(=N\N(C)C)[C@@]5(O)CC(O)CC[C@]5(C)[C@H]4CC[C@]3(C)C1[C@@H]2C (stereo partly drawn)
inactive: KM12 29.3 µM | A549 48.6 µM | TK-10 48.9 µM | U-251 37.2 µM | SNB-19 38.7 µM | Malme-3M 29.7 µM | HL-60 21.2 µM | MDA-N 23.3 µM | SF-539 36 µM | HCT-116 24.7 µM | OVCAR-3 43.9 µM | Hs-578T 33.3 µM | ACHN 73.3 µM | IGROV-1 89.1 µM | HOP-62 41.3 µM | M14 > 100 µM | NCI/ADR-RES 49.4 µM | NCI-H460 45.9 µM

Nc1nc(Cl)cc(OCC2(CO)CCCC2)n1
inactive: A549 > 100 µM | TK-10 > 100 µM | U-251 > 100 µM | SNB-19 > 100 µM | Malme-3M > 100 µM | HL-60 > 100 µM | MDA-N > 100 µM | SF-539 > 100 µM | HCT-116 > 100 µM | OVCAR-3 > 100 µM | Hs-578T > 100 µM | ACHN > 100 µM | SF-295 > 100 µM | IGROV-1 > 100 µM | HOP-62 > 100 µM | NCI/ADR-RES > 100 µM | OVCAR-8 > 100 µM | NCI-H460 > 100 µM

COC(=O)CCCC(=O)NC1=C(Nc2ccccc2)C(=O)c2ccccc2C1=O
inactive: KM12 5.24 µM | A549 19.5 µM | TK-10 26.8 µM | U-251 14.4 µM | SNB-19 18.2 µM | Malme-3M 3.56 µM | HL-60 20.5 µM | MDA-N 3.89 µM | SF-539 18.6 µM | HCT-116 16.6 µM | OVCAR-3 12.6 µM | Hs-578T 28.7 µM | ACHN 19.3 µM | SF-295 17.5 µM | IGROV-1 16 µM | M14 16.1 µM | NCI/ADR-RES 18.2 µM | OVCAR-8 31.9 µM | NCI-H460 16.6 µM

NC(Cc1ccc(S(=O)(=O)O)cc1)C(=O)NC(Cc1ccc(S(=O)(=O)O)cc1)C(=O)O (stereo not drawn)
inactive: KM12 > 100 µM | A549 > 100 µM | TK-10 > 100 µM | U-251 > 100 µM | Malme-3M > 100 µM | HL-60 > 100 µM | MDA-N > 100 µM | SF-539 > 100 µM | HCT-116 > 100 µM | OVCAR-3 > 100 µM | Hs-578T > 100 µM | ACHN > 100 µM | SF-295 > 100 µM | IGROV-1 > 100 µM | HOP-62 > 100 µM | M14 > 100 µM | NCI/ADR-RES > 100 µM | OVCAR-8 > 100 µM | NCI-H460 > 100 µM

O=C1CSC2(CC(/C=C/c3ccccc3[N+](=O)[O-])=NN2c2cccc(S(=O)(=O)O)c2)N1c1nc2ccccc2s1 (stereo not drawn)
inactive: KM12 15.5 µM | A549 18.7 µM | TK-10 15.1 µM | U-251 14.5 µM | SNB-19 15.5 µM | Malme-3M 24.4 µM | HL-60 21.7 µM | MDA-N 17.9 µM | SF-539 23.5 µM | HCT-116 21.3 µM | Hs-578T 22.3 µM | ACHN 17.1 µM | IGROV-1 15.3 µM | M14 20.7 µM | NCI/ADR-RES 21.5 µM | OVCAR-8 15.3 µM | NCI-H460 17 µM

Cc1cc(S(=O)(=O)Nc2nc(N)n(-c3ccccn3)n2)c(S)cc1Cl
inactive: KM12 > 100 µM | A549 > 100 µM | TK-10 > 100 µM | U-251 > 100 µM | SNB-19 > 100 µM | Malme-3M > 100 µM | HL-60 > 100 µM | MDA-N > 100 µM | SF-539 > 100 µM | HCT-116 > 100 µM | OVCAR-3 > 100 µM | Hs-578T 75 µM | ACHN > 100 µM | IGROV-1 > 100 µM | HOP-62 > 100 µM | M14 > 100 µM | NCI/ADR-RES > 100 µM | OVCAR-8 > 100 µM | NCI-H460 > 100 µM
